{"source": "patent US20240308996A1", "about": "“PYRIDOPYRIDINES AND DERIVATIVES THEREOF AS SELECTIVE KINASE INHIBITORS” (University of Sharjah, priority 2023, published 2024)", "format_in_all_cases": "cell-based", "key": {"[1]": {"tested_on": "SF-539", "assay": "NCI-60 cell line panel: SF-539", "settings": "CNS Cancer", "protocol": "(§1) It was carried out at the NCI, Bethesda, MD, USA, utilizing their standard protocol."}, "[2]": {"tested_on": "NCI/ADR-RES", "assay": "NCI-60 cell line panel: NCI/ADR-RES", "design": "TGI: unit not given here", "settings": "Ovarian Cancer", "protocol": "as §1"}, "[3]": {"tested_on": "M14", "assay": "NCI-60 cell line panel: M14", "settings": "Melanoma", "protocol": "as §1"}, "[4]": {"tested_on": "K-562", "assay": "NCI-60 cell line panel: K-562", "design": "TGI: unit not given here", "protocol": "as §1"}, "[5]": {"tested_on": "SK-OV-3", "assay": "NCI-60 cell line panel: SK-OV-3", "settings": "Ovarian Cancer", "protocol": "as §1"}, "[6]": {"tested_on": "PC-3", "assay": "NCI-60 cell line panel: PC-3", "settings": "Prostate Cancer", "protocol": "as §1"}, "[7]": {"tested_on": "hepatocellular carcinoma cell lines", "assay": "Screening against HCC cell lines", "protocol": "The target compounds were tested against hepatocellular carcinoma cell lines. Compounds 1j. 13a. 13b. 13c. […] The mean inhibition percentage values are illustrated in Table 9.\nTwo HCC cell lines (Hep3B and HepG2) were used for screening the antiproliferative activity of the synthesized compounds. The cell lines were obtained from the European Collection of Cell Cultures (ECACC, UK) and maintained in Dulbecco's Modified Eagle Medium (DMEM: Sigma-Aldrich) supplemented with 10% fetal bovine serum (FBS) and 1% penicillin/streptomycin and incubated at 37° C. in a 5% CO2 air atmosphere. In addition, WI-38 normal cell line was used to investigate the safety of these compounds.\nMTT assay was conducted to calculate the IC50 of the compounds following the reported procedure . Briefly, the cells were seeded in 96-well tissue culture plates with a density of 5×10^4 cells/well and incubated overnight at 37° C. in a 5% CO2 air atmosphere. After that, cells were treated with the newly synthesized compounds or sorafenib as a positive control. DMSO was used as a negative control. After 48 h, the media were aspirated, and replaced with media containing 0.5 mg/mL of MTT tetrazolium dye (Sigma-Aldrich) for 2 h at 37° C. Finally, the media were removed and 200 μL of DMSO was added to solubilize the formazan crystals. Absorbance was then measured at 570 nm using Varioskan Flash multimode plate reader (Thermo Scientific, Massachusetts, USA)."}, "[8]": {"tested_on": "MDA-MB-231/ATCC", "assay": "NCI-60 cell line panel: MDA-MB-231/ATCC", "settings": "Breast Cancer", "protocol": "as §1"}, "[9]": {"tested_on": "NCI-H226", "assay": "NCI-60 cell line panel: NCI-H226", "settings": "Non-Small Cell Lung Cancer", "protocol": "as §1"}, "[10]": {"tested_on": "MDA-MB-435", "assay": "NCI-60 cell line panel: MDA-MB-435", "design": "TGI: unit not given here", "settings": "Melanoma", "protocol": "as §1"}, "[11]": {"tested_on": "SR", "assay": "NCI-60 cell line panel: SR", "settings": "Leukemia", "protocol": "as §1"}, "[12]": {"tested_on": "SK-MEL-28", "assay": "NCI-60 cell line panel: SK-MEL-28", "settings": "Melanoma", "protocol": "as §1"}, "[13]": {"tested_on": "UO-31", "assay": "NCI-60 cell line panel: UO-31", "design": "TGI: unit not given here", "settings": "Renal Cancer", "protocol": "as §1"}, "[14]": {"tested_on": "NCI-H522", "assay": "NCI-60 cell line panel: NCI-H522", "design": "TGI: unit not given here", "settings": "Non-Small Cell Lung Cancer", "protocol": "as §1"}, "[15]": {"tested_on": "A549/ATCC", "assay": "NCI-60 cell line panel: A549/ATCC", "settings": "Non-Small Cell Lung Cancer", "protocol": "as §1"}, "[16]": {"tested_on": "HCC-2998", "assay": "NCI-60 cell line panel: HCC-2998", "settings": "Colon Cancer", "protocol": "as §1"}, "[17]": {"tested_on": "OVCAR-5", "assay": "NCI-60 cell line panel: OVCAR-5", "settings": "Ovarian Cancer", "protocol": "as §1"}, "[18]": {"tested_on": "786-0", "assay": "NCI-60 cell line panel: 786-0", "settings": "Renal Cancer", "protocol": "as §1"}, "[19]": {"tested_on": "DU-145", "assay": "NCI-60 cell line panel: DU-145", "settings": "Prostate Cancer", "protocol": "as §1"}, "[20]": {"tested_on": "SN12C", "assay": "NCI-60 cell line panel: SN12C", "settings": "Renal Cancer", "protocol": "as §1"}, "[21]": {"tested_on": "BT-549", "assay": "NCI-60 cell line panel: BT-549", "settings": "Breast Cancer", "protocol": "as §1"}, "[22]": {"tested_on": "A498", "assay": "NCI-60 cell line panel: A498", "settings": "Renal Cancer", "protocol": "as §1"}, "[23]": {"tested_on": "MCF7", "assay": "NCI-60 cell line panel: MCF7", "settings": "Breast Cancer", "protocol": "as §1"}, "[24]": {"tested_on": "LOX IMVI", "assay": "NCI-60 cell line panel: LOX IMVI", "settings": "Melanoma", "protocol": "as §1"}, "[25]": {"tested_on": "ACHN", "assay": "NCI-60 cell line panel: ACHN", "settings": "Renal Cancer", "protocol": "as §1"}, "[26]": {"tested_on": "RXF 393", "assay": "NCI-60 cell line panel: RXF 393", "settings": "Renal Cancer", "protocol": "as §1"}, "[27]": {"tested_on": "SW-620", "assay": "NCI-60 cell line panel: SW-620", "settings": "Colon Cancer", "protocol": "as §1"}}, "data": [{"compound": "CNC(=O)c1cc(-c2ccc(NC(=O)Nc3ccc(N4CCN(C)CC4)c(C(F)(F)F)c3)cc2)nc2cccnc12", "note": "[Compound 13b, N-Methyl-2-(4-(3-(4-(4-methylpiperazin-1-yl)-3-(trifluoromethyl)phenyl)ureido)phenyl)-1,5-naphthyridine-4-carboxamide]", "values": [{"measurement": "TGI", "setting": "[1]; total growth inhibition", "value": 26.5, "unit": "µM"}, {"measurement": "IC50", "setting": "[1]; Homo sapiens", "value": 13.6, "unit": "µM"}, {"measurement": "IC50", "setting": "[2]; Homo sapiens", "value": 14.2, "unit": "µM"}, {"measurement": "TGI", "setting": "[2]; total growth inhibition", "value": 45.4}, {"measurement": "IC50", "setting": "[3]; Homo sapiens", "value": 1.79, "unit": "µM"}, {"measurement": "TGI", "setting": "[3]; total growth inhibition", "value": 3.71, "unit": "µM"}, {"measurement": "IC50", "setting": "[4]; Homo sapiens, K562, Leukemia", "value": 2.12, "unit": "µM"}, {"measurement": "TGI", "setting": "[4]; Leukemia, total growth inhibition", "value": 5.35}, {"measurement": "IC50", "setting": "[5]; Homo sapiens", "value": 18.5, "unit": "µM"}, {"measurement": "TGI", "setting": "[5]; total growth inhibition", "value": 34.7, "unit": "µM"}, {"measurement": "IC50", "setting": "[6]; Homo sapiens", "value": 15.1, "unit": "µM"}, {"measurement": "TGI", "setting": "[6]; total growth inhibition", "value": 30.1, "unit": "µM"}, {"measurement": "inhibition activity against hepatocellular carcinoma cell lines compared with sorafenib", "setting": "[7]", "value": "higher inhibition activity than sorafenib"}, {"measurement": "TGI", "setting": "[8]; total growth inhibition", "value": 38.1, "unit": "µM"}, {"measurement": "IC50", "setting": "[8]; Homo sapiens", "value": 17.5, "unit": "µM"}, {"measurement": "IC50", "setting": "[9]; Homo sapiens", "value": 18, "unit": "µM"}, {"measurement": "TGI", "setting": "[9]; total growth inhibition", "value": 39.7, "unit": "µM"}, {"measurement": "IC50", "setting": "[10]; Homo sapiens", "value": 1.75, "unit": "µM"}, {"measurement": "TGI", "setting": "[10]; total growth inhibition", "value": 3.27}, {"measurement": "IC50", "setting": "[11]; Homo sapiens", "value": 9.97, "unit": "µM"}, {"measurement": "TGI", "setting": "[11]; total growth inhibition", "value": 44.6, "unit": "µM"}, {"measurement": "IC50", "setting": "[12]; Homo sapiens", "value": 1.67, "unit": "µM"}, {"measurement": "TGI", "setting": "[12]; total growth inhibition", "value": 3.11, "unit": "µM"}, {"measurement": "IC50", "setting": "[13]; Homo sapiens", "value": 15.3, "unit": "µM"}, {"measurement": "TGI", "setting": "[13]; total growth inhibition", "value": 29.2}, {"measurement": "IC50", "setting": "[14]; Homo sapiens", "value": 16.5, "unit": "µM"}, {"measurement": "TGI", "setting": "[14]; total growth inhibition", "value": 31.1}, {"measurement": "IC50", "setting": "[15]; Homo sapiens", "value": 10.9, "unit": "µM"}, {"measurement": "TGI", "setting": "[15]; total growth inhibition", "value": 24.3, "unit": "µM"}, {"measurement": "TGI", "setting": "[16]; total growth inhibition", "value": 34.6, "unit": "µM"}, {"measurement": "IC50", "setting": "[16]; Homo sapiens", "value": 18, "unit": "µM"}, {"measurement": "IC50", "setting": "[17]; Homo sapiens", "value": 15.6, "unit": "µM"}, {"measurement": "TGI", "setting": "[17]; total growth inhibition", "value": 29, "unit": "µM"}, {"measurement": "IC50", "setting": "[18]; Homo sapiens", "value": 1.81, "unit": "µM"}, {"measurement": "TGI", "setting": "[18]; total growth inhibition", "value": 3.52, "unit": "µM"}, {"measurement": "IC50", "setting": "[19]; Homo sapiens", "value": 17.6, "unit": "µM"}, {"measurement": "TGI", "setting": "[19]; total growth inhibition", "value": 35.6, "unit": "µM"}, {"measurement": "IC50", "setting": "[20]; Homo sapiens", "value": 16.7, "unit": "µM"}, {"measurement": "TGI", "setting": "[20]; total growth inhibition", "value": 34.7, "unit": "µM"}, {"measurement": "TGI", "setting": "[21]; total growth inhibition", "value": 35.3, "unit": "µM"}, {"measurement": "IC50", "setting": "[21]; Homo sapiens", "value": 16.5, "unit": "µM"}, {"measurement": "IC50", "setting": "[22]; Homo sapiens", "value": "≥ 100", "unit": "µM"}, {"measurement": "TGI", "setting": "[22]; total growth inhibition", "value": 100, "unit": "µM"}, {"measurement": "TGI", "setting": "[23]; total growth inhibition", "value": 3.45, "unit": "µM"}, {"measurement": "IC50", "setting": "[23]; Homo sapiens", "value": 1.67, "unit": "µM"}, {"measurement": "IC50", "setting": "[24]; Homo sapiens", "value": 0.66, "unit": "µM"}, {"measurement": "TGI", "setting": "[24]; total growth inhibition", "value": 24.5, "unit": "µM"}, {"measurement": "IC50", "setting": "[25]; Homo sapiens", "value": 15.5, "unit": "µM"}, {"measurement": "TGI", "setting": "[25]; total growth inhibition", "value": 28.9, "unit": "µM"}, {"measurement": "IC50", "setting": "[26]; Homo sapiens", "value": 3.38, "unit": "µM"}, {"measurement": "TGI", "setting": "[26]; total growth inhibition", "value": 15, "unit": "µM"}, {"measurement": "TGI", "setting": "[27]; total growth inhibition", "value": 4.62, "unit": "µM"}, {"measurement": "IC50", "setting": "[27]; Homo sapiens", "value": 2.11, "unit": "µM"}]}]}
